Tests used:
Experiment in all cases: combination Emax (second highest fraction inhibited in the dose matrix, 72 h); higher = more inhibition; extreme values may be limits of the assay
MPP-89 (Mesothelioma) = test system: MPP-89 (Mesothelioma)
Outline: (§1)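 Cell lines grown in DMEM/F12 or RPMI with 10% FBS were plated in 1536-well plates and held 24 hours at 37°C, 5% CO2 before 72 hours of exposure to two-drug dose matrices, with DMSO typically at 0.2%. CellTiter-Glo 2.0 luminescence gave viability, which was converted to inhibition. Vehicle wells were set to 0 and blank wells to 1. Combination Emax is the second-highest inhibition in the matrix, and Bliss excess is the observed combination effect minus the expected EA + EB − EA·EB, where EA and EB are the single-agent effects.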

[1] = test system: MHH-CALL-2 (B-Lymphoblastic Leukemia)
Outline: as §1

[2] = test system: Detroit562 (Head and Neck Carcinoma)
Outline: as §1

BE2-M17 (Neuroblastoma) = test system: BE2-M17 (Neuroblastoma)
Outline: as §1

BPH-1 (Non-Cancerous) = test system: BPH-1 (Non-Cancerous)
Outline: as §1

CAL-72 (Osteosarcoma) = test system: CAL-72 (Osteosarcoma)
Outline: as §1

[3] = test system: NCI-H209 (Small Cell Lung Carcinoma)
Outline: as §1

[4] = test system: NUGC-4 (Gastric Carcinoma)
Outline: as §1

[5] = test system: SAS (Oral Cavity Carcinoma)
Outline: as §1

[6] = test system: BFTC-909 (Kidney Carcinoma)
Outline: as §1

[7] = test system: CAL-33 (Oral Cavity Carcinoma)
Outline: as §1

[8] = test system: Hs-746T (Gastric Carcinoma)
Outline: as §1

GAMG (Glioblastoma) = test system: GAMG (Glioblastoma)
Outline: as §1

[9] = test system: L-428 (Hodgkin's Lymphoma)
Outline: as §1

[10] = test system: KMRC-20 (Kidney Carcinoma)
Outline: as §1

EW-11 (Ewing's Sarcoma) = test system: EW-11 (Ewing's Sarcoma)
Outline: as §1

[11] = test system: HeLa (Cervical Carcinoma)
Outline: as §1

[12] = test system: FTC-133 (Thyroid Gland Carcinoma)
Outline: as §1

[13] = test system: SW1573 (Lung Adenocarcinoma)
Outline: as §1

[14] = test system: KYAE-1 (Esophageal Adenocarcinoma)
Outline: as §1

Row | Structure (SMILES) | combination Emax (MPP-89 (Mesothelioma)) | combination Emax [1] | combination Emax [2] | combination Emax (BE2-M17 (Neuroblastoma)) | combination Emax (BPH-1 (Non-Cancerous)) | combination Emax (CAL-72 (Osteosarcoma)) | combination Emax [3] | combination Emax [4] | combination Emax [5] | combination Emax [6] | combination Emax [7] | combination Emax [8] | combination Emax (GAMG (Glioblastoma)) | combination Emax [9] | combination Emax [10] | combination Emax (EW-11 (Ewing's Sarcoma)) | combination Emax [11] | combination Emax [12] | combination Emax [13] | combination Emax [14]
1 | Cc1c2c(nn1C)CSCc1cc(n(C)n1)CSc1cc(c3ccccc3c1)OCCCc1c(C(=O)O)n(C)c3c-2c(Cl)ccc13 [AZD5991] + C1CN(CCC1(C(=O)N[C@@H](CCO)C2=CC=C(C=C2)Cl)N)C3=NC=NC4=C3C=CN4 [Capivasertib] (first compound max 1 µM, 7x7, partner max 3 µM) | 0.268 | 1 | 0.325 | 0.966 | 0.469 | 0.415 | 0.36 | 0.215 | 0.189 | 0.446 | 0.347 | 0.337 | 0.477 | 0.155 | 0.223 | 0.897 | 0.671 | 0.663 | 0.231 | 0.334
2 | Cc1c2c(nn1C)CSCc1cc(n(C)n1)CSc1cc(c3ccccc3c1)OCCCc1c(C(=O)O)n(C)c3c-2c(Cl)ccc13 [AZD5991] + CN(C)CCCOc1ccc(-c2ccc3ncc4c(c3c2)n(C2CCOCC2)c(=O)n4C)cn1 [AZD0156] (first compound max 1 µM, 7x7, partner max 1 µM) | 0.182 | 0.985 | 0.269 | 0.875 | 0.733 | 0.328 | 0.544 | 0.238 | 0.268 | 0.239 | 0.185 | 0.358 | 0.255 | 0.23 | 0.218 | 0.803 | 0.46 | 0.719 | 0.214 | 0.177
3 | Cc1c2c(nn1C)CSCc1cc(n(C)n1)CSc1cc(c3ccccc3c1)OCCCc1c(C(=O)O)n(C)c3c-2c(Cl)ccc13 [AZD5991] + C[C@@H](Nc1cc(F)cc(F)c1)c1cc(C(=O)N(C)C)cc2c(=O)cc(N3CCOCC3)oc12 [AZD8186] (first compound max 1 µM, 7x7, partner max 3 µM) | 0.22 | 0.989 | 0.305 | 0.92 | 0.461 | 0.365 | 0.384 | 0.374 | 0.321 | 0.3 | 0.28 | 0.487 | 0.585 | 0.12 | 0.262 | 0.906 | 0.614 | 0.667 | 0.288 | 0.209
4 | Cn1cnc2c(F)c(Nc3ccc(Br)cc3Cl)c(C(=O)NOCCO)cc21 [Selumetinib] + C[C@@H]1COCCN1C2=NC(=NC(=C2)C3(CC3)[S@](=N)(=O)C)C4=C5C=CNC5=NC=C4 [AZD6738] (first compound max 10 µM, 7x7, partner max 10 µM) | 0.329 | 0.951 | 0.88 | 0.83 | 0.503 | 0.752 | 0.878 | 0.607 | 0.806 | 0.797 | 0.826 | 0.579 | 0.469 | 0.69 | 0.441 | 0.592 | 0.486 | 0.724 | 0.284 | 0.0615
5 | CC1(C)CCC(CN2CCN(c3ccc(C(=O)NS(=O)(=O)c4ccc(NCC5CCOCC5)c([N+](=O)[O-])c4)c(Oc4cnc5[nH]ccc5c4)c3)CC2)=C(c2ccc(Cl)cc2)C1 [Venetoclax] + Cc1cc2ncnn2cc1Nc1ncc2c(n1)n(C1CCOCC1)c(=O)n2C [AZD7648] (first compound max 1 µM, 7x7, partner max 10 µM) | 0.418 | 0.17 | 0.304 | 0.276 | 0.232 | 0.643 | 0.642 | 0.232 | 0.256 | 0.294 | 0.329 | 0.226 | 0.377 | 0.215 | 0.288 | 0.558 | 0.199 | 0.182 | 0.144 | 0.176
6 | CC1(C)CCC(CN2CCN(c3ccc(C(=O)NS(=O)(=O)c4ccc(NCC5CCOCC5)c([N+](=O)[O-])c4)c(Oc4cnc5[nH]ccc5c4)c3)CC2)=C(c2ccc(Cl)cc2)C1 [Venetoclax] + C[C@@H](Nc1cc(F)cc(F)c1)c1cc(C(=O)N(C)C)cc2c(=O)cc(N3CCOCC3)oc12 [AZD8186] (first compound max 1 µM, 7x7, partner max 3 µM) | 0.236 | 0.294 | 0.137 | 0.276 | 0.31 | 0.406 | 0.515 | 0.287 | 0.282 | 0.203 | 0.149 | 0.269 | 0.453 | 0.196 | 0.245 | 0.699 | 0.124 | 0.182 | 0.136 | 0.554

— the supplement of paper PMC11061612
